In test [1] the target is T1, IDO (Homo sapiens, UniProt P14902). The experiment in a line: Kynurenine assay in Hela cells stimulated with IFN-γ to express IDO. Format: cell-based. Set-up: endogenous in cells; host or cells: HeLa (ATCC CCL-2), stimulated with human recombinant IFN-gamma. The following applies: 20 h, read-out: Hela Kyurenine (IC50). As for the experimental part: IFNg (R&D, 28-IF-100)—resuspend at 10 ug/mL in PBS with 0.1% BSA 30% TCA
Ehrlich reagent (2% w/v p-dimethylaminobenzaldehyde in glacial acetic acid)
Cell Titer 96 Aqueous Non-Radioactive Cell Proliferation Assay, MTS (Promega, Cat # G5430)
Cell Lines and Culture Conditions
Hela cancer cell lines were acquired from the American Type Culture Collection. Cells were maintained in phenol red free-RPMI1640 medium containing high glucose and L-glutamine (Invitrogen) supplemented with 10% fetal bovine serum (FBS; Invitrogen). Cell cultures were incubated at 37° C., 5% CO2, and 100% humidity.
Cell Treatment and Kynurenine Assay
Hela cells were seeded on 96-well plates (40,000 cells per well) and allowed to adhere for 5-6 hours. Cells were then treated with vehicle (DMSO) or with IDO inhibitor at a top dose of 30 μM (3-fold dilution all the way down to 1.5 nM). A final concentration of 100 ng/mL of human recombinant IFN-γ (R&D, 28-IF-100) was immediately added to the cells to stimulate IDO expression. Treated cells were then incubated for 20 hours at 37° C. At the end of the 20 h incubation, reactions were terminated by the addition of 30% TCA to each well. Plates were incubated for 30 minutes at 50° C. to hydrolyze N-formylkynurenine to kynurenine. Cells were centrifuged 10 minutes at 2400 rpm. 100 ul of supernatants were transferred to new 96 flat well plates and mixed with 100 ul Ehrlich reagent. The resulting solution was incubated 10 minutes at RT. Absorbance at 490 nm was read using Spectra Max 384 (Molecular Devices).

Another test has as its target T2, Human IDO1 (Homo sapiens, UniProt P14902).
T2 construct: expressed in transfected cells; host or cells: HEK293
In words: IDO Kynurenine Assay with Human IDO1/HEK293 Cells. Format: cell-based. To be noted: read-out: HEK human IDO-1 (IC50). The method in brief: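 HEK293 cells stably expressing human IDO1, in phenol red-free RPMI/10% FBS, exposed to compound for 20 h at 37 °C. Stopped with 0.2% TCA (50 °C, 30 min); kynurenine in supernatant detected with Ehrlich reagent, absorbance 490 nm.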

For test [2], the target named is T1, IDO. In words: LLE_IDO_ABS_DR (IDO assay).

T1 sequence (P14902 whole entry): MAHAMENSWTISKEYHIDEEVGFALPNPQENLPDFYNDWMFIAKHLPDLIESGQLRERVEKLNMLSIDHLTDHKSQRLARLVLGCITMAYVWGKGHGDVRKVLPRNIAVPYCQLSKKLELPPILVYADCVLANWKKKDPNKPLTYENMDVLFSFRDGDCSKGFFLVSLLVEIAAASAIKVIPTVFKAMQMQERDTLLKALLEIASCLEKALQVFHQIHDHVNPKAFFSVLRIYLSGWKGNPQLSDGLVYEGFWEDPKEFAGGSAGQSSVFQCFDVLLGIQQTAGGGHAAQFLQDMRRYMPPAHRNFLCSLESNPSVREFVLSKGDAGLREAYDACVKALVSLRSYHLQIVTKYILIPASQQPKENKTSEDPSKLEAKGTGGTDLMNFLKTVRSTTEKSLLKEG
T2 sequence (P14902 whole entry): as above

As for `Cc1ccc(NC(=O)Nc2cc(-c3ccccc3-c3nnn[nH]3)ccc2N(CC(C)C)CC(C)C)cc1` [Example 1, 1-(4-(Diisobutylamino)-2′-(1H-tetrazol-5-yl)biphenyl-3-yl)-3-p-tolylurea], the IC50 on IDO [1] is 1.37 nM; on Human IDO1, 3.31 nM; against IDO [2], 3.45 nM.
With `Cc1ccc(NC(=O)Nc2cc(-c3ccccc3C(=O)O)ccc2N2CCC[C@@H]3CCCC[C@@H]32)cc1` [Example 49, 4′-((4aS,8aS)-octahydroquinolin-1(2H)-yl)-3′-(3-p-tolylureido)biphenyl-2-carboxylic acid], the concentration for half-maximal inhibition (IC50) on IDO [1] was determined as 180 nM; on IDO [2], 160 nM.
On to `Cc1ccc(NC(=O)Nc2cc(-c3ccccc3-c3nnn[nH]3)ccc2N(C)C2CCOCC2)cc1` [Example 50, 1-(4-(methyl(tetra-hydro-2H-pyran-4-yl)amino)-2′-(1H-tetrazol-5-yl)biphenyl-3-yl)-3-p-tolylurea], for which the figures for the IC50 at IDO [1] and at IDO [2] were 60 nM and 310 nM, respectively.
`Cc1ccc(NC(=O)Nc2cc(-c3ccccc3C(=O)O)ccc2N(CC(C)C)CC(C)C)cc1` [Example 52, 4′-(diisobutyl-amino)-3′-(3-p-tolylureido) biphenyl-2-carboxylic acid]: the IC50 at IDO [1] came to 5.57 nM; on IDO [2] it was 10 nM.
For the compound `CCN(c1ccc(-c2ccccc2-c2nnn[nH]2)cc1NC(=O)Nc1ccccc1F)C1CCCCC1` [Example 53, 1-(4-(cyclohexyl (ethyl)amino)-2′-(1H-tetrazol-5-yl)biphenyl-3-yl)-3-(2-fluorophenyl) urea], the half-inhibitory concentration (IC50) amounted to 0.772 nM on IDO [1] and 3.45 nM on IDO [2].
Turning to `COC(CN(C)c1ccc(-c2ccccc2C(=O)O)cc1NC(=O)Nc1ccc(C)cc1)OC` [Example 54, 4′-((2,2-dimethoxyethyl) (methyl)amino)-3′-(3-p-tolylureido) biphenyl-2-carboxylic acid], the half-inhibitory concentration (IC50) on IDO [1] came to 80 nM; at IDO [2] it was 300 nM.
On the same counts, the results for `COC(CN(C)c1ccc(-c2ccccc2-c2nnn[nH]2)cc1NC(=O)Nc1ccc(C)cc1)OC` [Example 55, 1-(4-((2,2-dimethoxyethyl) (methyl)amino)-2′-(1H-tetrazol-5-yl)biphenyl-3-yl)-3-p-tolylurea] are 110 nM and 230 nM.
For the compound `COCCN(CCOC)c1ccc(-c2ccccc2C(=O)O)cc1NC(=O)Nc1ccc(C)cc1` [Example 56, 4′-(bis(2-methoxyethyl)amino)-3′-(3-p-tolylureido)biphenyl-2-carboxylic acid], the IC50 at IDO [1] was 3120 nM; against IDO [2], 3590 nM.
For the compound `COCCN(CCOC)c1ccc(-c2ccccc2-c2nnn[nH]2)cc1NC(=O)Nc1ccc(C)cc1` [Example 57, 1-(4-(bis(2-methoxyethyl)amino)-2′-(1H-tetrazol-5-yl)biphenyl-3-yl)-3-p-tolylurea], the 50% inhibitory concentration (IC50) on IDO [1] came out at 220 nM; at IDO [2] it was 270 nM.
On to `CCCN(CC1CC1)c1ccc(-c2ccccc2C(=O)O)cc1NC(=O)Nc1ccc(C)cc1` [Example 58, 4′-((cyclopropylmethyl) (propyl)amino)-3′-(3-p-tolylureido) biphenyl-2-carboxylic acid], for which the concentration for half-maximal inhibition (IC50) was 60 nM on IDO [1] and 100 nM at IDO [2].
Turning to `CCCN(CC1CC1)c1ccc(-c2ccccc2-c2nnn[nH]2)cc1NC(=O)Nc1ccc(C)cc1` [Example 59, 1-(4-((cyclopropylmethyl) (propyl)amino)-2′-(1H-tetrazol-5-yl)biphenyl-3-yl)-3-p-tolylurea], the values for the IC50 on IDO [1] and against IDO [2] were 10 nM and 20 nM, respectively.
For `Cc1ccc(NC(=O)Nc2cc(-c3ccccc3-c3nnn[nH]3)ccc2N(CC(F)F)CC2CC2)cc1` [Example 60, 1-(4-((cyclopropylmethyl) (2,2-difluoroethyl)amino)-2′-(1H-tetrazol-5-yl)biphenyl-3-yl)-3-p-tolylurea], in that order: 140 nM and 140 nM.
Take `Cc1ccc(NC(=O)Nc2cc(-c3ccccc3C(=O)O)ccc2N(CC(F)F)CC2CC2)cc1` [Example 61]: the 50% inhibitory concentration (IC50) is 700 nM at IDO [1] and 510 nM against IDO [2].
Take `COc1ccc(-c2ccc(N(CC(F)F)CC3CC3)c(NC(=O)Nc3ccc(C)cc3)c2)cc1C(=O)O` [Example 62, 4′-((cyclopropylmethyl) (2,2-difluoroethyl)amino)-4-methoxy-3′-(3-p-tolylureido)biphenyl-3-carboxylic acid]: the IC50 on IDO [1] stood at 2280 nM; at IDO [2] it was 4120 nM.
For `Cc1cccc(NC(=O)Nc2cc(-c3ccccc3-c3nnn[nH]3)ccc2N(C)C2CCCCC2)c1` [Example 211, 1-(4-(cyclohexyl(methyl)amino)-2′-(1H-tetrazol-5-yl)biphenyl-3-yl)-3-m-tolylurea], the IC50 on IDO [1] came out at 110 nM; against IDO [2] it was 490 nM.
For `CN(c1ccc(-c2ccccc2-c2nnn[nH]2)cc1NC(=O)Nc1ccccc1C(F)(F)F)C1CCCCC1` [Example 212, 1-(4-(cyclohexyl(methyl)amino)-2′-(1H-tetrazol-5-yl)biphenyl-3-yl)-3-(2-(trifluoromethyl)phenyl)urea], the IC50 at IDO [1] turned out to be 200 nM; against IDO [2], 1270 nM.
Consider `Cc1ccc(NC(=O)Nc2cc(-c3ccccc3C(=O)O)ccc2N(C)C2CCCCC2)cc1` [Example 213, 4′-(cyclohexyl(methyl)amino)-3′-(3-p-tolylureido)biphenyl-2-carboxylic acid], for which the IC50 at IDO [1] came out at 6.56 nM; against IDO [2] it was 10 nM.
Take `CN(c1ccc(-c2ccccc2-c2nnn[nH]2)cc1NC(=O)Nc1ccccc1F)C1CCCCC1` [Example 214, 1-(4-(cyclohexyl(methyl)amino)-2′-(1H-tetrazol-5-yl)biphenyl-3-yl)-3-(2-fluorophenyl)urea]: the half-maximal inhibitory concentration (IC50) on IDO [1] was 1.07 nM; against IDO [2] it was 2.36 nM.
For `CN(c1ccc(-c2ccccc2C(=O)O)cc1NC(=O)Nc1ccccc1Cl)C1CCCCC1` [Example 215, 3′-(3-(2-chlorophenyl)ureido)-4′-(cyclohexyl(methyl)amino) biphenyl-2-carboxylic acid], in that order: 120 nM and 1280 nM.
Take `CCN(c1ccc(-c2ccccc2-c2nnn[nH]2)cc1NC(=O)Nc1ccc(C)cc1)C1CCCCC1` [Example 216, 1-(4-(cyclohexyl(ethyl)amino)-2′-(1H-tetrazol-5-yl)biphenyl-3-yl)-3-p-tolylurea]: the results for the IC50 at IDO [1] and on IDO [2] were 0.831 nM and 0.835 nM, respectively.
On the same counts, the results for `CN(c1ccc(-c2ccccc2C(=O)O)cc1NC(=O)Nc1ccccc1)C1CCCCC1` [Example 218, 4′-(cyclohexyl(methyl)amino)-3′-(3-phenylureido)biphenyl-2-carboxylic acid] are 90 nM and 490 nM.
As to `CN(c1ccc(-c2ccccc2C(=O)O)cc1NC(=O)Nc1ccccc1F)C1CCCCC1` [Example 219, 4′-(cyclohexyl(methyl)amino)-3′-(3-(2-fluorophenyl)ureido) biphenyl-2-carboxylic acid], the IC50 came to 10 nM at IDO [1] and 80 nM at IDO [2].
`COc1ccc(-c2cc(NC(=O)Nc3ccc(C)cc3)c(N(C)C3CCCCC3)cc2F)cc1C(=O)O` [Example 220, 4′-(cyclohexyl(methyl)ami-no)-2′-fluoro-4-methoxy-5′-(3-p-tolylureido)biphenyl-3-carboxylic acid]: the figures for the 50% inhibitory concentration (IC50) at IDO [1] and against IDO [2] were 440 nM and 1470 nM, respectively.
Take `Cc1ccc(NC(=O)Nc2cc(-c3ccccc3C(=O)O)c(F)cc2N(C)C2CCCCC2)cc1` [Example 221, 4′-(cyclohexyl(methyl)ami-no)-2′-fluoro-5′-(3-p-tolylureido)biphenyl-2-carboxylic acid]: the IC50 on IDO [1] is 6.56 nM; against IDO [2] it was 9.05 nM.
In the case of `Cc1ccc(NC(=O)Nc2cc(-c3ccccc3-c3nnn[nH]3)c(F)cc2N(C)C2CCCCC2)cc1` [Example 222, 1-(4-(cyclohexyl(methyl)ami-no)-6-fluoro-2′-(1H-tetrazol-5-yl)biphenyl-3-yl)-3-p-tolylurea], the IC50 stood at 2.63 nM at IDO [1] and 10 nM on IDO [2].
On the same counts, the results for `Cc1ccc(NC(=O)Nc2cc(-c3ccccc3-c3nnn[nH]3)c(F)cc2N(CC(F)F)CC2CC2)cc1` [Example 223, 1-(4-((cyclopropylmethyl)(2,2-difluoroethyl)amino)-6-fluoro-2′-(1H-tetrazol-5-yl)biphenyl-3-yl)-3-p-tolylurea] are 160 nM and 420 nM.
`Cc1ccc(NC(=O)Nc2cc(-c3ccccc3C(=O)O)c(F)cc2N(CC(F)F)CC2CC2)cc1` [Example 224, 4′-((cyclopropylmethyl)(2,2-difluoroethyl)amino)-2′-fluoro-5′-(3-p-tolylureido)biphenyl-2-carboxylic acid]: the values for the concentration for half-maximal inhibition (IC50) at IDO [1] and against IDO [2] were 440 nM and 640 nM, respectively.

The record behind these values is patent US9758492B2, “IDO inhibitors” (Bristol-Myers Squibb Company, priority 2013, dated 2017).
